# Columns and labels:
# A549 [1] = assay: Cytotoxicity against human A549 cells at 20 ug/mL by sulforhodamine B assay; type: functional
# 1A9 [2] = assay: Cytotoxicity against human 1A9 cells at 20 ug/mL by sulforhodamine B assay; type: functional
# KB [3] = assay: Cytotoxicity against human KB cells at 20 ug/mL by sulforhodamine B assay; type: functional
# [4] = Cytotoxicity against multi drug-resistant human KBVIN cells at 20 ug/mL by sulforhodamine B assay; type: functional
# MCF7 [5] = assay: Cytotoxicity against human MCF7 cells at 20 ug/mL by sulforhodamine B assay; type: functional
# PC-3 [6] = assay: Cytotoxicity against human PC3 cells at 20 ug/mL by sulforhodamine B assay; type: functional
# DU-145 [7] = assay: Cytotoxicity against human DU145 cells at 20 ug/mL by sulforhodamine B assay; type: functional
# LNCaP [8] = assay: Cytotoxicity against human LNCAP cells at 20 ug/mL by sulforhodamine B assay; type: functional
# DU-145 [9] = assay: Cytotoxicity against human DU145 cells by sulforhodamine B assay; type: functional; settings: read-out: ED50 (the source's name)
# KB [10] = assay: Cytotoxicity against human KB cells by sulforhodamine B assay; type: functional; settings: read-out: ED50 (the source's name)
# [11] = Cytotoxicity against multi drug-resistant human KBVIN cells by sulforhodamine B assay; type: functional; settings: read-out: ED50 (the source's name)
# PC-3 [12] = assay: Cytotoxicity against human PC3 cells by sulforhodamine B assay; type: functional; settings: read-out: ED50 (the source's name)
# A549 [13] = assay: Cytotoxicity against human A549 cells by sulforhodamine B assay; type: functional; settings: read-out: ED50 (the source's name)
# MCF7 [14] = assay: Cytotoxicity against human MCF7 cells by sulforhodamine B assay; type: functional; settings: read-out: ED50 (the source's name)
# LNCaP [15] = assay: Cytotoxicity against human LNCAP cells by sulforhodamine B assay; type: functional; settings: read-out: ED50 (the source's name)
# HUVEC = assay: Antiangiogenesis activity against HUVEC cells; type: functional; settings: Homo sapiens, read-out: ED50 (the source's name)
# 1A9 [16] = assay: Cytotoxicity against human 1A9 cells by sulforhodamine B assay; type: functional; settings: read-out: ED50 (the source's name)
# [17] = Cytotoxicity against human MRC5 cells at 10 ug/mL by sulforhodamine B assay; type: cell-based; settings: read-out: Inhibition
Structure (SMILES),inhibition at 20 µg/mL (A549 [1]) [%],inhibition at 20 µg/mL (1A9 [2]) [%],inhibition at 20 µg/mL (KB [3]) [%],inhibition at 20 µg/mL [4] [%],inhibition at 20 µg/mL (MCF7 [5]) [%],inhibition at 20 µg/mL (PC-3 [6]) [%],inhibition at 20 µg/mL (DU-145 [7]) [%],inhibition at 20 µg/mL (LNCaP [8]) [%],EC50 (DU-145 [9]) [nM],EC50 (KB [10]) [nM],EC50 [11] [nM],EC50 (PC-3 [12]) [nM],EC50 (A549 [13]) [nM],EC50 (MCF7 [14]) [nM],EC50 (LNCaP [15]) [nM],EC50 (HUVEC) [nM],EC50 (1A9 [16]) [nM],cytotoxicity at 10 ug/mL [17] [%]
CC1(C)[C@@H](O)CC[C@]2(C)[C@H]3C(=O)C=C4[C@@H]5C[C@@](C)(C(=O)O)CC[C@]5(C)CC[C@@]4(C)[C@]3(C)CC[C@@H]12 [ENOXOLONE],< 50,< 50,< 50,< 50,< 50,< 50,< 50,< 50,–,–,–,–,–,–,–,–,–,–
COc1cc([C@@H]2c3cc4c(cc3[C@@H](Nc3ccc(C(=O)NCCC(=O)O[C@@H](C(=O)O[C@H]5C[C@@]6(O)[C@@H](OC(=O)c7ccccc7)[C@@H]7[C@]8(OC(C)=O)CO[C@@H]8C[C@H](O)[C@@]7(C)C(=O)[C@H](OC(C)=O)C(=C5C)C6(C)C)[C@@H](NC(=O)c5ccccc5)c5ccccc5)cc3)[C@H]3COC(=O)[C@H]23)OCO4)cc(OC)c1O,–,–,–,–,–,–,–,–,8.6,8.4,9960,12.1,10.1,6.4,4.2,4.93,2.9,< 50
